Measured values as given in ChEMBL document CHEMBL4382216, “Asymmetric synthesis and biological evaluation of imidazole- and oxazole-containing synthetic lipoxin A4 mimetics (sLXms)” (Eur J Med Chem, 2019).
Activity calls are given as the source filed them. The calls are words filed in the database; no cut-off is given here.

Experiments:
[1] = test system: THP-1; assay: Cytotoxicity against human THP1 cells harboring NFkB-Luc assessed as LDH release at 10'12 M after 24 hrs by spectrophotometric method relative to control; type: cell-based; conditions: thp-1, 24 h
[2] = test system: THP-1; assay: Cytotoxicity against human THP1 cells harboring NFkB-Luc assessed as LDH release at 10'11 M after 24 hrs by spectrophotometric method relative to control; type: cell-based; conditions: thp-1, 24 h
[3] = target: T1, N-formyl peptide receptor 2 (Homo sapiens, UniProt P25090); assay: Agonist activity at ALX/FPR2 in human THP1 cells harboring NF-kB-Luc assessed as inhibition of LPS-induced NFkB signalling activation by measuring reduction in IL-1beta secretion pretreated for 30 mins followed by LPS stimulation for 24 hrs by electrochemiluminescence assay; type: cell-based
T1 sequence (P25090 whole entry): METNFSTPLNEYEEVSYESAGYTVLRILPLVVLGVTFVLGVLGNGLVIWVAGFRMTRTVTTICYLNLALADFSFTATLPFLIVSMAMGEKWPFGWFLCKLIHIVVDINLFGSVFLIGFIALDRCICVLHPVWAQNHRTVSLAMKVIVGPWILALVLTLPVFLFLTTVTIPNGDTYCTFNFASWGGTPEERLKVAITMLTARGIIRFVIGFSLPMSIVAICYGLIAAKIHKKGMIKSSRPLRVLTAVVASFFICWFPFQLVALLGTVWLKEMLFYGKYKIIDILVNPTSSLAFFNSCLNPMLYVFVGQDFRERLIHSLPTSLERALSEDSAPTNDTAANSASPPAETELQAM

[4] = species on record: Homo sapiens; assay: Activation of Luc-fused NFkB (unknown origin) expressed in non-stimulated human THP1 cells assessed as relative luminescence unit at 10^-9 M after 24 hrs by luciferase reporter gene assay (reference value: 100%); type: cell-based
[5] = target: T1, N-formyl peptide receptor 2; assay: Agonist activity at ALX/FPR2 in human THP1 cells harboring NF-kB-Luc assessed as inhibition of LPS-induced NFkB signalling activation by measuring reduction in IL-6 secretion pretreated for 30 mins followed by LPS stimulation for 24 hrs by electrochemiluminescence assay; type: cell-based
[6] = species on record: Homo sapiens; assay: Activation of Luc-fused NFkB (unknown origin) expressed in non-stimulated human THP1 cells assessed as relative luminescence unit at 10^-7 M after 24 hrs by luciferase reporter gene assay (reference value: 100%); type: cell-based
[7] = test system: HEK293; assay: Induction of intracellular calcium accumulation in HEK293 cells at 0.01 nM to 100 nM by Fluo-4 dye based fluorescence spectrophotometric assay; type: functional, cell-based; conditions: Homo sapiens
[8] = species on record: Homo sapiens; assay: Activation of Luc-fused NFkB (unknown origin) expressed in non-stimulated human THP1 cells assessed as relative luminescence unit at 10^-6 M after 24 hrs by luciferase reporter gene assay (reference value: 100%); type: cell-based
[9] = target: T1, N-formyl peptide receptor 2; assay: Agonist activity at ALX/FPR2 in human THP1 cells harboring NF-kB-Luc assessed as inhibition of LPS-induced NFkB signalling activation by measuring reduction in IFNgamma secretion pretreated for 30 mins followed by LPS stimulation for 24 hrs by electrochemiluminescence assay; type: cell-based
[10] = target: T1, N-formyl peptide receptor 2; assay: Agonist activity at ALX/FPR2 in human THP1 cells harboring NF-kB-Luc assessed as inhibition of LPS-induced NFkB signalling activation by measuring reduction in IL-12p70 secretion pretreated for 30 mins followed by LPS stimulation for 24 hrs by electrochemiluminescence assay; type: cell-based
[11] = test system: THP-1; assay: Cytotoxicity against human THP1 cells harboring NFkB-Luc assessed as LDH release at 10'7 M after 24 hrs by spectrophotometric method relative to control; type: cell-based; conditions: thp-1, 24 h
[12] = test system: THP-1; assay: Cytotoxicity against human THP1 cells harboring NFkB-Luc assessed as LDH release at 10'8 M after 24 hrs by spectrophotometric method relative to control; type: cell-based; conditions: thp-1, 24 h
[13] = test system: THP-1; assay: Cytotoxicity against human THP1 cells harboring NFkB-Luc assessed as LDH release at 10'6 M after 24 hrs by spectrophotometric method relative to control; type: cell-based; conditions: thp-1, 24 h
[14] = species on record: Homo sapiens; assay: Activation of Luc-fused NFkB (unknown origin) expressed in non-stimulated human THP1 cells assessed as relative luminescence unit at 10^-11 M after 24 hrs by luciferase reporter gene assay (reference value: 100%); type: cell-based
[15] = target: T1, N-formyl peptide receptor 2; assay: Agonist activity at ALX/FPR2 in human THP1 cells harboring NF-kB-Luc assessed as inhibition of LPS-induced NFkB signalling activation pretreated for 30 mins followed by LPS stimulation for 24 hrs by luciferase reporter gene assay; type: cell-based
[16] = species on record: Homo sapiens; assay: Activation of Luc-fused NFkB (unknown origin) expressed in non-stimulated human THP1 cells assessed as relative luminescence unit at 10^-10 M after 24 hrs by luciferase reporter gene assay (reference value: 100%); type: cell-based
[17] = test system: THP-1; assay: Cytotoxicity against human THP1 cells harboring NFkB-Luc assessed as LDH release at 10'9 M after 24 hrs by spectrophotometric method relative to control; type: cell-based; conditions: thp-1, 24 h
[18] = species on record: Homo sapiens; assay: Activation of Luc-fused NFkB (unknown origin) expressed in non-stimulated human THP1 cells assessed as relative luminescence unit at 10^-8 M after 24 hrs by luciferase reporter gene assay (reference value: 100%); type: cell-based
[19] = test system: THP-1; assay: Cytotoxicity against human THP1 cells harboring NFkB-Luc assessed as LDH release at 10'10 M after 24 hrs by spectrophotometric method relative to control; type: cell-based; conditions: thp-1, 24 h
[20] = target: T1, N-formyl peptide receptor 2; assay: Agonist activity at ALX/FPR2 in human THP1 cells harboring NF-kB-Luc assessed as inhibition of LPS-induced NFkB signalling activation by measuring reduction in TNFalpha secretion pretreated for 30 mins followed by LPS stimulation for 24 hrs by electrochemiluminescence assay; type: cell-based
[21] = species on record: Homo sapiens; assay: Activation of Luc-fused NFkB (unknown origin) expressed in non-stimulated human THP1 cells assessed as relative luminescence unit at 10^-12 M after 24 hrs by luciferase reporter gene assay (reference value: 100%); type: cell-based
[22] = test system: HEK293; assay: Induction of intracellular calcium accumulation in HEK293 cells at 1 uM by Fluo-4 dye based fluorescence spectrophotometric assay; type: functional, cell-based; conditions: Homo sapiens
[23] = target: T2, N-formyl peptide receptor 2 (Homo sapiens) (UniProt P25090); assay: Agonist activity at ALX/FPR2 (unknown origin) expressed in HEK293 cells co-expressing Galphaq assessed as induction of intracellular calcium accumulation at 1 uM by Fluo-4 dye based fluorescence spectrophotometric assay; type: functional, cell-based
T2 sequence (whole entry): T1 sequence (P25090 whole entry)

[24] = target: T2, N-formyl peptide receptor 2 (Homo sapiens); assay: Agonist activity at ALX/FPR2 in human THP1 cells harboring NF-kB-Luc assessed as inhibition of LPS-induced NFkB signalling activation by measuring IL-1beta secretion at 10^-12 M pretreated for 30 mins followed by LPS stimulation for 24 hrs by electrochemiluminescence assay (reference value: 100%); type: cell-based; parameters: scale not given: the % may be the effect or the level left
[25] = target: T2, N-formyl peptide receptor 2 (Homo sapiens); assay: Agonist activity at ALX/FPR2 in human THP1 cells harboring NF-kB-Luc assessed as inhibition of LPS-induced NFkB signalling activation by measuring IL-12p70 secretion at 10^-12 M pretreated for 30 mins followed by LPS stimulation for 24 hrs by electrochemiluminescence assay (reference value: 100%); type: cell-based; parameters: scale not given: the % may be the effect or the level left
[26] = target: T2, N-formyl peptide receptor 2 (Homo sapiens); assay: Agonist activity at ALX/FPR2 in human THP1 cells harboring NF-kB-Luc assessed as inhibition of LPS-induced NFkB signalling activation by measuring TNFalpha secretion at 10^-12 M pretreated for 30 mins followed by LPS stimulation for 24 hrs by electrochemiluminescence assay (reference value: 100%); type: cell-based; parameters: scale not given: the % may be the effect or the level left
[27] = target: T2, N-formyl peptide receptor 2 (Homo sapiens); assay: Agonist activity at ALX/FPR2 in human THP1 cells harboring NF-kB-Luc assessed as inhibition of LPS-induced NFkB signalling activation by measuring IL-6 secretion at 10^-12 M pretreated for 30 mins followed by LPS stimulation for 24 hrs by electrochemiluminescence assay (reference value: 100%); type: cell-based; parameters: scale not given: the % may be the effect or the level left
[28] = target: T2, N-formyl peptide receptor 2 (Homo sapiens); assay: Agonist activity at ALX/FPR2 in human THP1 cells harboring NF-kB-Luc assessed as inhibition of LPS-induced NFkB signalling activation by measuring NF-kB activation level at 10^-12 M pretreated for 30 mins followed by LPS stimulation for 24 hrs by luciferase reporter gene assay; type: cell-based; parameters: scale not given: the % may be the effect or the level left
[29] = target: T2, N-formyl peptide receptor 2 (Homo sapiens); assay: Agonist activity at ALX/FPR2 in human THP1 cells harboring NF-kB-Luc assessed as inhibition of LPS-induced NFkB signalling activation by measuring IFNgamma secretion at 10^-12 M pretreated for 30 mins followed by LPS stimulation for 24 hrs by electrochemiluminescence assay (reference value: 100%); type: cell-based; parameters: scale not given: the % may be the effect or the level left

| Compound | fold change (FC) [1] | Activity [4] | Activity [6] | Activity [8] | IC50 ([10]; read-out: IC50) | Activity [14] | IC50 [15] | Activity [16] | Activity [18] | Activity [21] | IC50 [3] | IC50 [5] | IC50 [9] | IC50 [20] | other results |
| --- | --- | --- | --- | --- | --- | --- | --- | --- | --- | --- | --- | --- | --- | --- | --- |
| CCCCC[C@H](O)c1nc(-c2ccccc2)oc1/C=C/[C@@H](O)[C@@H](O)CCCC(=O)OC(C)C | 1.1 | 5.3% | 4% | 6.1% | 5.1 nM | 4.5% | 69.6 nM | 6.2% | 4.3% | 6.2% | – | – | – | – | fold change (FC) [2]: 1.1; IC50 ([3]; read-out: IC50): 3.2 nM; IC50 ([5]; read-out: IC50): 31.4 nM; Activity [7]: inactive; IC50 ([9]; read-out: IC50): 2.5 nM; fold change (FC) [11]: 1; fold change (FC) [12]: 1; fold change (FC) [13]: 1; fold change (FC) [17]: 0.9; fold change (FC) [19]: 1; IC50 ([20]; read-out: IC50): 6.7 nM |
| Nc1ncnc2c1ncn2[C@@H]1O[C@H](COP(=O)(O)OP(=O)(O)OP(=O)(O)O)[C@@H](O)[C@H]1O | – | – | – | – | – | – | – | – | – | – | – | – | – | – | Activity [22]: Active; Activity [23]: Active |
| COC(=O)CCC[C@H](O)[C@H](O)/C=C/c1nc(C)n(C)c1[C@@H](C)O | – | 8.8% | 9.4% | 9.6% | 3.8 nM | 8.8% | 27.8 nM | 9.3% | 10.4% | 9.7% | Not Active | Not Active | Not Active | Not Active | – |
| CCCCC[C@@H](O)c1ccccc1/C=C/[C@@H](O)[C@@H](O)CCCC(=O)OC | 0.9 | – | – | – | – | – | – | – | – | 2.9% | – | – | – | – | Activity [24]: 39.7%; Activity [25]: 62.9%; Activity [26]: 64.2%; Activity [27]: 61.1%; Activity [28]: 80%; Activity [29]: 83.9% |
| COC(=O)CCC[C@H](O)[C@H](O)/C=C/c1nc(C)n(C)c1[C@H](C)O | – | 3.4% | 3.5% | 2.4% | – | – | 27.8 nM | 4.5% | – | 3.1% | Not Active | Not Active | Not Active | Not Active | IC50 [10]: Not Active |
